Experimental data reported in paper PMC11487561 (ACS Chemical Neuroscience, 2024).

Columns and labels:
Purinergic P2Y = assay: Lead Profiling Screen – Eurofins Panlabs; type: binding, rat
[1] = biological target: Serotonin (5-Hydroxytryptamine) 5-HT2B (Homo sapiens, UniProt P41595); assay: Lead Profiling Screen – Eurofins Panlabs; type: binding; conditions: read-out: % inh at 10 μM
human M2 = human M2 (Homo sapiens, UniProt P08172); assay: Calcium mobilization assay, muscarinic selectivity; type: cell-based
hCav3.2 = biological target: T1, hCav3.2 (Homo sapiens, UniProt O95180); assay: Cardiac Ion Channel Panel – Charles River (QPatch HT patch clamp); type: cell-based
T1 construct: Charles River Laboratories
Protocol: (§1) page 17: Table S3. Cardiac Ion Channel Panel - Charles River Laboratories for VU6016235 Ion Channel Concentration Mean % Standard Standard n (μM) Inhibition Deviation Error hCav1.2 10 13.9 8.9 5.1 3 hCav3.2 10 6.7 2.7 1.4 4 hHCN2 10 2.6 1.9 1.1 3 hERG 10 10.9 0.9 0.4 4 hKv1.5 10 1.3 1.8 0.9 4 […] 10 4.1 5.6 2.8 4 hKv1.3 10 9 2.9 1.7 3 hNav1.5 (Tonic) 10 5.8 0.6 0.4 3 […] (Phasic) The in vitro effects of VU6016235 were evaluated at room temperature using the QPatch HT® (Sophion Bioscience A/S, Denmark), an automatic parallel patch clamp system. VU6016235 was evaluated at a concentration of 10 μM and tested in at least 3 cells (n ≥ 3). The duration of exposure to each test article concentration was at least 5 minutes. Rat Amphetamine-Induced Hyperlocomotion (AHL) Protocol Male Harlan Sprague Dawley rats with a mean body weight of 240 g (range 221-264 g) were tested in SmartFrame Open Field locomotor activity test chambers to automatically record locomotor activity. All […] for an additional 30 min with either vehicle or a dose of VU6016235 or the comparator M 4 PAM […] Next, rats were injected subcutaneously with vehicle or a dose of 0.75 mg/kg amphetamine and then monitored for an additional 60 min. Changes in locomotor activity were recorded for a total of 120 min. Locomotor data were expressed as the number of photobeam breaks/5 min intervals across the 120-min test session or as the total ambulation, calculated as sum of photobeam beam breaks from the time of amphetamine administration (60 min) until the end of the study (120 min). Time course data were analyzed by two-way ANOVA with main effects of treatment and time; changes in total ambulation were analyzed by one-way ANOVA followed by Dunnett's post hoc test (GraphPad Prism 7 [GraphPad Software, San Diego, CA]). For all tests, α ≤ 0.05 was considered to represent statistical significance. Finally, percent reversal data were calculated in Microsoft Excel using the following formula: Percent Reversal = 100 - {[(total ambulation in individual animal from t = 60 to t = 120) / (mean total ambulation S17

hERG = biological target: T2, hERG (Homo sapiens, UniProt Q12809); assay: as above; type: cell-based
T2 construct: Charles River Laboratories
Protocol: as §1

hHCN2 = biological target: T3, hHCN2 (Homo sapiens, UniProt Q9UL51); assay: as above; type: cell-based
T3 construct: Charles River Laboratories
Protocol: as §1

hCav1.2 = biological target: T4, hCav1.2 (Homo sapiens, UniProt Q13936); assay: as above; type: cell-based
T4 construct: Charles River Laboratories
Protocol: as §1

hKvLQT1/minK = biological target: T5, hKvLQT1/minK (Homo sapiens, UniProt P51787); assay: as above; type: cell-based
T5 construct: Charles River Laboratories
Protocol: as §1

hNav1.5 (Phasic) = biological target: T6, hNav1.5 (Phasic) (Homo sapiens, UniProt Q14524); assay: as above; type: cell-based
T6 construct: Charles River Laboratories
Protocol: as §1

hKv1.3 = biological target: T7, hKv1.3 (Homo sapiens, UniProt P22001); assay: as above; type: cell-based
T7 construct: Charles River Laboratories
Protocol: as §1

hNav1.5 (Tonic) = biological target: T8, hNav1.5 (Tonic) (Homo sapiens, UniProt Q14524); assay: as above; type: cell-based
T8 construct: Charles River Laboratories
Protocol: as §1

hERG potassium channel = hERG potassium channel (Homo sapiens, UniProt Q12809); assay: Lead Profiling Screen – Eurofins Panlabs; type: binding; conditions: read-out: % inh at 10 μM
Calcium Channel N-Type = biological target: T9, Calcium Channel N-Type (Rattus norvegicus, UniProt Q02294); assay: Lead Profiling Screen – Eurofins Panlabs; type: binding; conditions: read-out: % inh at 10 μM
T9 construct: Eurofins Panlabs (contract screen)

Purinergic P2X = assay: Lead Profiling Screen – Eurofins Panlabs; type: binding, rabbit
Histamine H3 = Histamine H3 (Homo sapiens, UniProt Q9Y5N1); assay: Lead Profiling Screen – Eurofins Panlabs; type: binding; conditions: read-out: % inh at 10 μM
Bradykinin B2 = biological target: T10, Bradykinin B2 (Homo sapiens, UniProt P30411); assay: Lead Profiling Screen – Eurofins Panlabs; type: binding; conditions: read-out: % inh at 10 μM
T10 construct: Eurofins Panlabs (contract screen)

[2] = system: Calcium Channel L-Type, Benzothiazepine; assay: Lead Profiling Screen – Eurofins Panlabs; type: binding, rat

Sequence of human M2 (P08172 whole entry): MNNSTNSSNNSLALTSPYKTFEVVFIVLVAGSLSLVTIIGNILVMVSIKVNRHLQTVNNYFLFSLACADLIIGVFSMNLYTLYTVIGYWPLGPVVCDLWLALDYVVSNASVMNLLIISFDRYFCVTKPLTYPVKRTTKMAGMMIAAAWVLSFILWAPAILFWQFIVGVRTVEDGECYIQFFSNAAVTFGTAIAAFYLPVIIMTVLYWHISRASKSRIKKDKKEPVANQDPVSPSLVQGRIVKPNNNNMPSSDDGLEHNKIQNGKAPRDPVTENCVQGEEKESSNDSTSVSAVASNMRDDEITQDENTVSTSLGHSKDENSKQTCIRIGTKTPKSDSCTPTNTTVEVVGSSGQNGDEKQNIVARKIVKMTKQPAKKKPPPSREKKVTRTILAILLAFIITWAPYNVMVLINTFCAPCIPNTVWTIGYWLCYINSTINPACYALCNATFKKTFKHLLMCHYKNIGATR
Sequence of Serotonin (5-Hydroxytryptamine) 5-HT2B (P41595 whole entry): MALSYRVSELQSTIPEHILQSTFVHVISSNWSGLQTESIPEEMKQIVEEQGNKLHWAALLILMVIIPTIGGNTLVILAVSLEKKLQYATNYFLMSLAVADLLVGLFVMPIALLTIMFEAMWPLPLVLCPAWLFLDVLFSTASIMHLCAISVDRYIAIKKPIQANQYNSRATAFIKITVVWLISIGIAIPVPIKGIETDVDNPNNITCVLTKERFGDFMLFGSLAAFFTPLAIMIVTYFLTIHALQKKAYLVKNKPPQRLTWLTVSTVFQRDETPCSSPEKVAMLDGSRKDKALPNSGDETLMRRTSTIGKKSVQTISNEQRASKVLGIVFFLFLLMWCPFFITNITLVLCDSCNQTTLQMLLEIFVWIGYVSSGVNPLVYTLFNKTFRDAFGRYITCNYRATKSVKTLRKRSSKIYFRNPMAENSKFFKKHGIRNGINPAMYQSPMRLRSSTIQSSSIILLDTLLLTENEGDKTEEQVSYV
T9 sequence (Q02294 whole entry): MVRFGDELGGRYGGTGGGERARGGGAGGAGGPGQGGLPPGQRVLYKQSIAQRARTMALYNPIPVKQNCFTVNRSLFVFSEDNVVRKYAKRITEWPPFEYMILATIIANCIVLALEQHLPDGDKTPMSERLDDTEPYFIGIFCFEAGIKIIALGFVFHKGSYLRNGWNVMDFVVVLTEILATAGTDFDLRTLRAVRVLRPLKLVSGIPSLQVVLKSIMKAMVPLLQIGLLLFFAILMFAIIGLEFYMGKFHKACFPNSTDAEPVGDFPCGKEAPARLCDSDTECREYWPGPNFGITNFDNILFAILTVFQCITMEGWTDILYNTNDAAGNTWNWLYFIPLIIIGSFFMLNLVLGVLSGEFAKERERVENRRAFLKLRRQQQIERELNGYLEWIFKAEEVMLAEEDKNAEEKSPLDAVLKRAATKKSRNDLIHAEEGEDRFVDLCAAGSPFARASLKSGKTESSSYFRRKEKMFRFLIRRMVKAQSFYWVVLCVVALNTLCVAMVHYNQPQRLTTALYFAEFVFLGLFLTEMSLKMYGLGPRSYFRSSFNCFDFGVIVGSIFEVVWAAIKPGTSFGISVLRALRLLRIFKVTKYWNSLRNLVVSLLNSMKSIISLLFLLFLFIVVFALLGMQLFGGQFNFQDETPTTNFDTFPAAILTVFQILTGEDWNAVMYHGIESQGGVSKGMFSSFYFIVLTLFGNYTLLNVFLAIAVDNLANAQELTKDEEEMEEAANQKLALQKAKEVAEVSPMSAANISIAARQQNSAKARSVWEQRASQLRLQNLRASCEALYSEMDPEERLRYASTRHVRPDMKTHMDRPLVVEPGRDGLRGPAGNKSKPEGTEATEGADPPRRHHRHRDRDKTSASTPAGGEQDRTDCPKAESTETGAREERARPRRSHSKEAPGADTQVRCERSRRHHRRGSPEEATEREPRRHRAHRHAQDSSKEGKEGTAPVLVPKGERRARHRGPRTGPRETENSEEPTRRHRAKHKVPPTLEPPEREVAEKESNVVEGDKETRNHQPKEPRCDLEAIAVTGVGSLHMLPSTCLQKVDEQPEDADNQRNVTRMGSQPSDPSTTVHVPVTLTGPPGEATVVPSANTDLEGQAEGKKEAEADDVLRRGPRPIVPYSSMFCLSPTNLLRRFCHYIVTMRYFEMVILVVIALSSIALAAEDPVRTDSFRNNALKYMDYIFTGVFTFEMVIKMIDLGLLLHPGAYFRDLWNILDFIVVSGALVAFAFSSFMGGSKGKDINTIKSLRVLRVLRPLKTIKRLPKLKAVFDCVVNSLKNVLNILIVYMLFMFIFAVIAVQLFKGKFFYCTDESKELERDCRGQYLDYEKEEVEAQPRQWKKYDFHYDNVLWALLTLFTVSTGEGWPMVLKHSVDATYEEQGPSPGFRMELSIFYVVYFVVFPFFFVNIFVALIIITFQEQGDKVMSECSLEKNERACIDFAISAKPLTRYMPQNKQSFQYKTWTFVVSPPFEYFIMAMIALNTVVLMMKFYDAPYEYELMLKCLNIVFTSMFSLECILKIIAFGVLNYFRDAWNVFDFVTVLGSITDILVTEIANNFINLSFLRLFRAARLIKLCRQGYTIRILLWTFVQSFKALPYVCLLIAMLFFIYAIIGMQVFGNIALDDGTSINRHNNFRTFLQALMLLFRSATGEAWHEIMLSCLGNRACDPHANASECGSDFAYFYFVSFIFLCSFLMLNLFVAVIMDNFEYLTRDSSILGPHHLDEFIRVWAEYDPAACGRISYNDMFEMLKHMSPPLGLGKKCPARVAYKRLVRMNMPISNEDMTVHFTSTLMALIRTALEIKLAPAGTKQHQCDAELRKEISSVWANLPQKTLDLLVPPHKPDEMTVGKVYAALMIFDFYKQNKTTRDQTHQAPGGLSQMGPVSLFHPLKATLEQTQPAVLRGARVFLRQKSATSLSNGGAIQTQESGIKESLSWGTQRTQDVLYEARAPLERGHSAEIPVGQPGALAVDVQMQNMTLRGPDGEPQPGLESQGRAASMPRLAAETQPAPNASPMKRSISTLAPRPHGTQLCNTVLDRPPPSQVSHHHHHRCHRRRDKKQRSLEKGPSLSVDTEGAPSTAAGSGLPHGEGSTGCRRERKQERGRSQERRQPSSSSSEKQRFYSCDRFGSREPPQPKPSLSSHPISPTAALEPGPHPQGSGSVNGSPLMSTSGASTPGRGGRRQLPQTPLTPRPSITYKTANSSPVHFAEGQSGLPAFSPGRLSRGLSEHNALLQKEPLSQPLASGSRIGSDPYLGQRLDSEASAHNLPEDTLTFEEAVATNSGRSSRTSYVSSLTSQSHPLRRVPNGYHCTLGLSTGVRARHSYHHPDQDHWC
T9 sequence (P54287 whole entry partner): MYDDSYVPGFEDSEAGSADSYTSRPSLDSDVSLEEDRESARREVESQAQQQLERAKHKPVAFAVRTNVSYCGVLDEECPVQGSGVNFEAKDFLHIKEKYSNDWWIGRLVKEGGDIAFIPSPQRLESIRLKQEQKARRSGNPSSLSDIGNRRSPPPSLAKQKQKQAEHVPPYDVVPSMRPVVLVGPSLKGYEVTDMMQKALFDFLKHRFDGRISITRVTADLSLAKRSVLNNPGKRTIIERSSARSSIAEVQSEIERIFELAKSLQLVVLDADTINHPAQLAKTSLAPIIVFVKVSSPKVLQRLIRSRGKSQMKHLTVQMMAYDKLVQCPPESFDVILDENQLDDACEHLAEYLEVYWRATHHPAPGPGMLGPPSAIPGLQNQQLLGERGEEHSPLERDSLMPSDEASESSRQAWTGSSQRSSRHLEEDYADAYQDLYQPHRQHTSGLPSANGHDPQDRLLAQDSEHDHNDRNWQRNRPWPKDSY
T9 sequence (P54290 25-944 partner limits assumed): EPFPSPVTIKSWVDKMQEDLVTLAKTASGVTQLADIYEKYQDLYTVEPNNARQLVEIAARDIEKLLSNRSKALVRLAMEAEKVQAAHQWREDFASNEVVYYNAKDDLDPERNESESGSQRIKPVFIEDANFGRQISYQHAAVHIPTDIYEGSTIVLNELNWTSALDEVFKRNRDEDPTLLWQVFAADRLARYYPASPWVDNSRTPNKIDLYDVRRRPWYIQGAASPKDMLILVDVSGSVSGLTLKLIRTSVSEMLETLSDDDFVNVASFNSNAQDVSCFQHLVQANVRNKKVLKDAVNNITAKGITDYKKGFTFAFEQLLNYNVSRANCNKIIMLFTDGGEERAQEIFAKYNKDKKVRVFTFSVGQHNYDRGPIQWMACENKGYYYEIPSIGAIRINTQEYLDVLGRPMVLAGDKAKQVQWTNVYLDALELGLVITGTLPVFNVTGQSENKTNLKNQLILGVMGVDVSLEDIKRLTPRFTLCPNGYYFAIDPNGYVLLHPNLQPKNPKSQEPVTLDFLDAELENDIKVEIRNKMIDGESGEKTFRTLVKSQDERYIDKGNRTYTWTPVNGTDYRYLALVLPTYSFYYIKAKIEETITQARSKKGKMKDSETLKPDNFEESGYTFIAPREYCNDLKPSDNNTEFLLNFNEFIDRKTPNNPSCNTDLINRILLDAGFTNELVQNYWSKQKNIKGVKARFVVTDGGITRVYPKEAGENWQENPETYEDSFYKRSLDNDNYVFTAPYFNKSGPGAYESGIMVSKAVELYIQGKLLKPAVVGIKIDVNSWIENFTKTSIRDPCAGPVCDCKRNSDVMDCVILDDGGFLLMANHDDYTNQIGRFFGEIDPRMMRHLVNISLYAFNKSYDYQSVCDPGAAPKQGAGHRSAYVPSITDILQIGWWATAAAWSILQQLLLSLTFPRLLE
T9 sequence (P54290 945-1091 partner limits assumed): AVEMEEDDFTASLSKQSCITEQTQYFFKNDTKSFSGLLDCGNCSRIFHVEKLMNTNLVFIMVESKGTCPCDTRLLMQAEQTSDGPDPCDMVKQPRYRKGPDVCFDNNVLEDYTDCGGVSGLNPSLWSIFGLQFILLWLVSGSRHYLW

## Cc1nc(C)c2c(n1)sc1c(NCc3ccc(C(C)(C)O)cc3)nccc12 [22g]
Purinergic P2Y
  % inh at 10 μM: 9%
[1]
  inhibition at 10 µM: 16%
Human M2
  EC50: 6.2 µM
  human M2 %Ach Max: [46] %Ach Max
hCav3.2
  inhibition at 10 µM: 6.7%
hERG
  inhibition at 10 µM: 10.9%
hHCN2
  inhibition at 10 µM: 2.6%
hCav1.2
  inhibition at 10 µM: 13.9%
hKvLQT1/minK
  inhibition at 10 µM: 4.1%
hNav1.5 (Phasic)
  inhibition at 10 µM: 6.9%
hKv1.3
  inhibition at 10 µM: 9%
hNav1.5 (Tonic)
  inhibition at 10 µM: 5.8%
hERG potassium channel
  inhibition at 10 µM: 16%
Calcium Channel N-Type
  inhibition at 10 µM: 2%
Purinergic P2X
  % inh at 10 μM: 0%
Histamine H3
  inhibition at 10 µM: 25%
Bradykinin B2
  inhibition at 10 µM: -1%
[2]
  % inh at 10 μM: 6%
